From US11608313B2, “Adamantylmethylamine derivative and use thereof as pharmaceutical” (TOHOKU UNIVERSITY, priority 2017, dated 2023) come the findings set out here.

One assay has as its target T1, Kir6.2 channels (Mus musculus, UniProt Q61743).
T1 construct: The plasmid vector having inserted therein Kir6.2 channel cDNA: pcDNA3.1-Kir6.2; expressed in transfected cells; host or cells: Neuro2A (N2A) cells, mouse neuroblastoma
T1 sequence (Q61743 1-390): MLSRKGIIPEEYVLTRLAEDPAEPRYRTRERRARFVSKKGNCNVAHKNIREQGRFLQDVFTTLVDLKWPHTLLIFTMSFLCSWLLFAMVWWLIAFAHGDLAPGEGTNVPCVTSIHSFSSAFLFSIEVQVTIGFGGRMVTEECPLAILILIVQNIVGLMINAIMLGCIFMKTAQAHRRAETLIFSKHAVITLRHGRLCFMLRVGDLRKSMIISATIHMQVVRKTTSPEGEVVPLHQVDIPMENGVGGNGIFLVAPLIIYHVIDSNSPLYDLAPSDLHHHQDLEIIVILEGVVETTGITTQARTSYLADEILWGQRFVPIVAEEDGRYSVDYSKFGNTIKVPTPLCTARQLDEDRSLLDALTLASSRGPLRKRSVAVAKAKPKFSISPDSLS
Briefly: Patch-clamp assay of outward potassium current in Kir6.2 channel-overexpressing cells. The assay is classed as cell-based. As to conditions: 10 nM, whole-cell patch-clamp. An excerpt:
The Kir6.2 channel-overexpressing cells obtained in Test Example 1 were used to measure potassium current discharged out of the cells by a conventional patch-clamp assay. ATP-sensitive potassium channels (Kir6.2 channels) are localized in the cell membranes of nerve cells. When the channels are inhibited and closed, the threshold of the nerve cell membranes increases to create a condition analogous to temporal generation of action potential, with the result that intracellular potassium current is discharged out of the cells and instead extracellular calcium current enters the cells. Immunoblotting of Kir6.2 channel-overexpressing cells (prepared by the aforementioned method) using an anti-Kir6.2 channel antibody (prepared by a conventional method) (n=5, under the same conditions as in Test Example 1, except for using the anti-Kir6.2 channel antibody) confirmed that Kir6.2 channels were overexpressed in N2A cells (FIG. 2-1; upper: immunoblot staining images; lower: quantitative representations of the signal intensity of staining bands).

The test system of assay [1] is Kir6.2 channel-overexpressing cells. The experiment in a line: Calcium imaging in Kir6.2 channel-overexpressing cells. The assay is classed as cell-based. The protocol: The same Kir6.2 channel-overexpressing cells as used in Test Example 1 were used to measure, by calcium imaging, the levels of calcium entering the cells after TP-014 treatment. The calcium imaging is a method in which cultured nerve cells are treated with a culture medium supplemented with a calcium fluorescent dye (Fura2, produced by Dojindo Laboratories) to a concentration of 4 μM, and measured for the levels of calcium based on fluorescence intensity. The imaging was carried out using an imaging apparatus (LAMBDA 10-2, produced by Sutter Instrument) in accordance with the attached manual.

A further assay concerns APP23 mice. Briefly: Fear conditioning test in APP23 mice. The assay is classed as in vivo. As to conditions: treated for two months. An excerpt: The fear conditioning test is an analysis method that takes advantage of the characteristic preference of mice for a dark place over a bright place. On day 1, a mouse is placed in a bright place. The mouse, which prefers darkness, enters a dark place (dark box), but then electrical simulation is delivered to the mouse. The mouse is surprised, returns to the bright place, and never enters the dark place. On day 2, the mouse is placed again in the bright place (the same place as on day 1) and observed for 5 minutes to see whether the mouse enters a dark place. If the mouse immediately enters the dark place, it is determined that the mouse experiences a decline in fear memory. “Latency” refers to the number of seconds until the mouse placed in the bright place on day 2 enters a dark place.

The next assay relates to OBX mice. The experiment in a line: Tail-suspension test and forced swim test in OBX mice (depression model). The note with it: chronic oral treatment for 2 weeks, 1 mg/kg. The assay is classed as in vivo. The protocol: OBX mice were used as a depression model to determine the effect of TP-014 (chronic oral treatment for 2 weeks (1 mg/kg)) to ameliorate a depression-like symptom. OBX mice are reported to show a decline in cognitive function, but have originally been established as a depression model. Depression analysis was done by tail-suspension test and forced swim test. In the tail-suspension test, mice are hung upside-down by their tail. If the hung mice are affected by depression, they show a longer immobility time. The immobility time of normal mice is shorter since they move actively when hung. In the forced swim test, mice are forced to swim in a beaker filled with water. Depression mice neither swim nor move (just float). The time (immobility time(s)) for which mice stay still in such a way is measured.
The same model mice were orally treated with a single dose of each of the test compounds (1 mg/kg), and analyzed after 1 hour by tail-suspension test and forced swim test. The results are shown in FIGS. 22-1 (tail-suspension test) and 22-2 (forced swim test).

Assay [2] has as its system Wild-type mice (C57BL/6J) treated with corticosterone. Briefly: Anxiety-related behavioral tests in corticosterone-treated wild-type mice. The assay is classed as in vivo. The note with it: 1 mg/kg orally once a day for 2 weeks. Here is the method:
Wild-type mice (C57BL/6J, Japan SLC, two month-old) treated with corticosterone (at a dose of 5 mg/kg once a day for 2 weeks) and Kir6.1-deficient mice treated with corticosterone were used as disease models showing anxiety-like symptoms, to perform five behavioral tests regarding anxiety-related behaviors. The Kir6.1-deficient mice were obtained from Professor Susumu Seino, School of Medicine of Kobe University (Miki T., et al., Nature Medicine 2002, 8, 466-472).
The apparatus used in this test consists of four arms arranged in a cross shape at an elevated position, which are either open or closed. Mice vulnerable to anxiety stay in the closed arms for a longer time, whereas those resistant to anxiety stay in the open arms. In FIG. 19-1, the time spent in the open arms is shown on the vertical axis.
Mice placed in a black box (dark place) feel anxious about light. The time spent until mice began to come out of the box (to a bright place) was measured. […]
In a cage with a mouse, wood chips are spread over the cage floor and 20 marbles are placed thereon in a manner that is visible to the mouse. The mouse is allowed to freely explore for 30 minutes, and the number of marbles buried and hidden by the mouse in wood chips is counted. […]
The test apparatus used in this test was the same as used in the light/dark test method. […] Such an immobility time of mice is measured. […]

Take `O=C(N[C@@H](c1ccccc1)[C@H]1[C@H]2C[C@@H]3C[C@](Cl)(C2)C[C@@]1(OC(=O)C(F)(F)F)C3)C(F)(F)F` [TP-014, (1S,2R,3S,5S,7S)-5-chloro-2-((R)-phenyl(2,2,2-trifluoroacetamido)methyl)adamantan-1-yl 2,2,2-trifluoroacetate]: the “outwardly flowing potassium current” value on Kir6.2 channels is listed as “suppressed”. Also, the intracellular calcium levels entry in assay [1] (1-100 nM, 4 minutes after treatment, Kir6.2 channel-overexpressing cells) is listed as “significantly increased”. For the same molecule, the “potency to enhance calcium levels compared with memantine” value in assay [1] (TP-014 1-100 nM vs memantine 100 nM) is “more potent to enhance calcium levels than memantine”. Further, the “fear memory (latency, fear conditioning test)” value with APP23 mice is recorded as “improvement in fear memory”. Also, in the assay with OBX mice, the “immobility time (tail-suspension test and forced swim test)” value is “improved”. In addition, the “exacerbated anxiety symptoms (elevated plus-maze, light/dark, marble burying, open field, fear conditioning tests)” value in assay [2] is on record as “significant amelioration of exacerbated anxiety symptoms”.
